Results reported in article PMC6214909, “An asparagine/glycine switch governs product specificity of human N-terminal methyltransferase NTMT2” (Communications Biology, 2018).

Columns and labels:
NTMT2-N89G mutant = assay: MALDI-MS methyltransferase activity assay, NTMT2-N89G mutant; assay type: biochemical, human; details: NTMT2-N89G under the same conditions (2 μM enzyme, 10 μM peptide, 200 μM SAM, pH 7.5, 37 °C, overnight)
Experimental: (§1) A mixture (36 μL) of 2 μM enzyme (NTMT1 or NTMT2), 25 mM Tris–HCl pH 7.5, 50 mM KCl and 200 μM SAM was incubated at 37 °C for 5 min. 4 μL of 100 μM peptide substrate (final concentration 10 μM) was then added to initiate the reaction. The reaction was incubated overnight and then stopped with quenching solution (20 mM NH4H2PO4, 0.4% (v/v) TFA in 1:1 acetonitrile/water). Reaction mixtures were analyzed with an Applied Biosystems Voyager matrix-assisted laser desorption/ionization time-of-flight mass spectrometer. Processing of all spectra results in Data Explorer included application of a noise filter (correlation factor of 1.0) and a baseline correction. Areas of the monoisotopic peaks for all relevant species were combined to obtain a total area for each sample. The fraction of each methylation state was calculated by summing the areas of all the monoisotopic peaks for that state ([M + H]^+, [M + Na]^+, [M + K]^+, [M – H + 2Na]^+, [M – H + 2 K]^+, and [M – H + Na + K]^+) and then dividing by the total area.

NTMT2 = molecular target: T1, NTMT2 (Homo sapiens, UniProt Q5VVY1); assay: MALDI-MS methyltransferase activity assay, NTMT2; assay type: biochemical; details: 2 μM NTMT2, 10 μM peptide, 200 μM SAM, 25 mM Tris–HCl pH 7.5, 50 mM KCl, 37 °C, overnight
T1 construct: DNA encoding human NTMT2 (residues 58–278) was amplified by PCR; SUMO (His8-SUMO of the pET28-MKH8SUMO vector, with TEV site) (N, cleaved yes); made in house; host or cells: Escherichia coli BL21 (DE3)
T1 sequence (Q5VVY1 58-278): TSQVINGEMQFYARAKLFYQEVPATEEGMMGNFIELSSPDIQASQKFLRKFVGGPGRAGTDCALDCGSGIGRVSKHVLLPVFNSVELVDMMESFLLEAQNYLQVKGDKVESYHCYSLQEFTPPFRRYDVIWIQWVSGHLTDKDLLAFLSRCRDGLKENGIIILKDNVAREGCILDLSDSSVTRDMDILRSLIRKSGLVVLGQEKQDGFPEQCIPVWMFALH
Experimental: as §1

NTMT1 = assay: MALDI-MS methyltransferase activity assay, NTMT1; assay type: biochemical, human; details: 2 μM NTMT1, 10 μM peptide, 200 μM SAM, 25 mM Tris–HCl pH 7.5, 50 mM KCl, 37 °C, overnight
Experimental: as §1

Substance	Di-methylated fraction (NTMT2-N89G mutant)	Mono-methylated fraction (NTMT2-N89G mutant)	Trimethylated fraction (NTMT2-N89G mutant)	Unmethylated fraction (NTMT2-N89G mutant)	Di-methylated fraction (NTMT2)	Mono-methylated fraction (NTMT2)	Trimethylated fraction (NTMT2)	Unmethylated fraction (NTMT2)	Di-methylated fraction (NTMT1)	Mono-methylated fraction (NTMT1)	Trimethylated fraction (NTMT1)	Unmethylated fraction (NTMT1)
APKRIA [synthetic XPKRIA hexapeptide substrate, X = A]	26.21%	71.86%	1.93%	0.00%	0.00%	32.17%	0.00%	67.83%	0.00%	0.00%	100.00%	0.00%
CPKRIA [synthetic XPKRIA hexapeptide substrate, X = C]	0.00%	63.38%	0.00%	36.62%	0.00%	25.20%	0.00%	74.80%	44.61%	27.87%	0.00%	27.51%
DPKRIA [synthetic XPKRIA hexapeptide substrate, X = D]	0.00%	0.00%	0.00%	100.00%	0.00%	0.00%	0.00%	100.00%	0.00%	9.37%	0.00%	90.64%
EPKRIA [synthetic XPKRIA hexapeptide substrate, X = E]	0.00%	0.00%	0.00%	100.00%	0.00%	0.00%	0.00%	100.00%	0.00%	10.70%	0.00%	89.30%
FPKRIA [synthetic XPKRIA hexapeptide substrate, X = F]	0.00%	100.00%	0.00%	0.00%	0.00%	50.22%	0.00%	49.78%	97.34%	0.00%	2.66%	0.00%
GPKRIA [synthetic XPKRIA hexapeptide substrate, X = G]	19.61%	6.64%	60.27%	13.49%	20.14%	15.31%	27.94%	36.61%	0.00%	0.00%	100.00%	0.00%
HPKRIA [synthetic XPKRIA hexapeptide substrate, X = H]	1.61%	98.39%	0.00%	0.00%	0.00%	39.05%	0.00%	60.95%	100.00%	0.00%	0.00%	0.00%
IPKRIA [synthetic XPKRIA hexapeptide substrate, X = I]	0.00%	5.08%	0.00%	94.92%	0.00%	0.00%	0.00%	100.00%	20.10%	43.34%	0.00%	36.56%
KPKRIA [synthetic XPKRIA hexapeptide substrate, X = K]	0.00%	20.40%	0.00%	79.60%	0.00%	5.19%	0.00%	94.81%	96.14%	0.00%	3.86%	0.00%
LPKRIA [synthetic XPKRIA hexapeptide substrate, X = L]	0.00%	18.14%	0.00%	81.86%	0.00%	3.16%	0.00%	96.84%	70.78%	26.28%	2.94%	0.00%
MPKRIA [synthetic XPKRIA hexapeptide substrate, X = M]	0.00%	100.00%	0.00%	0.00%	0.00%	41.45%	0.00%	58.55%	91.26%	0.00%	8.74%	0.00%
NPKRIA [synthetic XPKRIA hexapeptide substrate, X = N]	0.00%	21.58%	0.00%		0.00%	0.00%	0.00%	100.00%	100.00%	0.00%	0.00%	0.00%
PPKRIA [synthetic XPKRIA hexapeptide substrate, X = P]	4.45%	65.75%	0.00%		10.19%	38.00%	0.00%	51.81%	100.00%	0.00%	0.00%	0.00%
QPKRIA [synthetic XPKRIA hexapeptide substrate, X = Q]	0.00%	32.39%	0.00%	67.61%	0.00%	0.00%	0.00%	100.00%	100.00%	0.00%	0.00%	0.00%
RPKRIA [synthetic XPKRIA hexapeptide substrate, X = R]	0.00%	47.86%	0.00%	52.14%	0.00%	23.35%	0.00%	76.65%	98.24%	0.00%	1.76%	0.00%
TPKRIA [synthetic XPKRIA hexapeptide substrate, X = T]	0.00%	11.78%	0.00%	88.22%	0.00%	0.00%	0.00%	100.00%	33.51%	40.04%	0.00%	26.44%
VPKRIA [synthetic XPKRIA hexapeptide substrate, X = V]	0.00%	4.18%	0.00%	95.82%	0.00%	0.00%	0.00%	100.00%	45.70%	54.30%	0.00%	0.00%
